# Data taken from patent US12076368B2, “Treatment of liver, biliary tract and pancreatic disorders” (Novozymes A/S, priority 2016, dated 2024).
# Positions of bridges follow the written chain, without caps; N, C: chain ends. No end group written: not given here.
# Key:
# [1] = tested on: Dextran Sodium Sulphate (DSS) Induced Colitis Model in Mice; experiment: Acute 10-day DSS induced colitis model, hBD-2-albumin fusion N-terminal (Example 8); format: in vivo; conditions: fusion iv or sc daily; DEX 1 mg/kg sc OD
# Method: “hBD-2-albumin N-terminal” was administered intravenously via the tail vein or subcutaneously with the use of a sterile 25 G needle in a dosing volume of 10 ml/kg body weight. The animals received 1 dose daily for 10 executive days.
# C57Bl/6J DIO male mice = experiment: GLP-1 analog (liraglutide) treatment of high fat diet fed DIO mice (Example 5); format: in vivo; conditions: 0.2 mg/kg BID subcutaneously, 4 weeks
# Text: FIG. 31: Schematic outline of the experimental set up for investigating the effects of a GLP-1 analog (Liraglutid) on mouse gut inflammation and microbiota. At week −40, the C57/BI/6J DIO mice arrived. The mice were fed a high fat diet 60% fat, SSNIFF (Diet #D12492) or purina chow for 38 weeks to achieve an average body weight of 55 gram. From week −2 the mice were single housed. Faecal samples were collected on day −1 and 27 for 16S RNA analysis. Samples from ilium were collected 2 cm from caecum at day 28.
# 4 weeks old C57Bl/6J DIO male mice were fed a high fat diet (HFD 60% fat, SSNIFF (Diet #D12492)) or purina chow for […]. The HFD fed group had reached an average weight of approximately 55 grams by start of intervention. The mice were group housed 10 per cage until week −2. From week −2 the mice were single housed throughout the study. Feed intake was registered daily just before lights were turned off at 3 pm. Individual mice were subjected to experimental procedures in altered order both group and cage wise. Mice were kept at room temperature under a 12-hour light/dark cycle at SPF standard conditions.
# Mice were fed either a high fat diet (HFD) or a low fat (LF) control diet. The HFD contained 2 subgroups; 1 GLP-1 analog and 1 standard HFD without supplementation of GLP-1 analog. The GLP-1 analog liraglutide was dissolved in PBS and 0.1% BSA was added. The GLP-1 analog was administered at 0.2 mg/kg BID subcutaneously.
# [2] = tested on: Dextran Sodium Sulphate (DSS) Induced Colitis Model in Mice; experiment: Acute 10-day DSS induced colitis model, hBD-2-albumin fusion C-terminal (Example 9); format: in vivo; conditions: Pred 1 mg/kg orally daily
# Method: “hBD-2-albumin C-terminal” was administered intravenously via the tail vein or subcutaneously with the use of a sterile 25 G needle in a dosing volume of 10 ml/kg body weight. The animals received 1 dose daily for 10 […] days. The active control Prednisolone (Pred) was given orally by gavage at a dose of 1 mg/kg in a dosing volume of 10 ml/kg body weight OD.
# [3] = Pharmacokinetics of hBD-2 after single oral gavage (Example 6); format: in vivo, NMRI mice; conditions: oral dosing of 4 mg/kg in mice
# Method: FIG. 35. Pharmacokinetic data following oral administration of 4 mg/kg hBD-2 to female NMRI mice. […] The results are given as group mean+/−SEM.
# 21 female NMRI mice were dosed by oral gavage 5 ml/kg using a gavage tube and a 1 ml syringe according to the individual body weight obtained on the day of dosing. Urine was strived sampled at random time points by gently massaging the inguinal area of the abdomen. The first blood sample was taken using a submandibular sampling method. The second blood sample was collected from Isoflurane anaesthetised mice. Intestinal samples were taken after euthanasia. The abdomen of each mouse was opened and three sections of the intestines were sampled.
# [4] = Pharmacokinetics of hBD-2 and hBD-2-albumin fusions after subcutaneous or intravenous administration (Example 7); format: in vivo, NMRI female mice; conditions: hBD-2 1 mg/kg
# Method: FIG. 36. Pharmacokinetic data for hBD-2 following subcutaneous (SC) and intravenous (IV) administration of 1 mg/kg respectively. […] The different curves represent different experiments and detection methods (HPLC and ELISA).
# FIG. 37. Pharmacokinetic data for “hBD-2-albumin fusion N-terminal” following subcutaneous and intravenous administration of 16.5 mg/kg respectively. […] The results are the mean of 4 mice/sampling time+/−SD.
# FIG. 38. Pharmacokinetic data for “hBD-2-albumin fusion C-terminal” following subcutaneous and intravenous administration of 16.5 mg/kg respectively. […] The results are the mean of 4 mice/sampling time+/−SD.
# The animals were dosed 10 ml/kg of stock concentration of 1.65 mg/ml according to the individual body weight (300 μL for a 30 gram mouse). First blood sample was taken using a submandibular sampling method and the second following Isoflurane anaesthesia and euthanasia.
# [5] = degradation by dipeptidyl peptidase-4; cited from earlier work
# isolated hepatocytes = conditions: Liu et al. (2008); cited from earlier work
# [6] = compared to untreated HFD reference group
compound,measurement,setting,value
"C[C@@H]1C[C@H]2[C@@H]3CCC4=CC(=O)C=C[C@]4(C)[C@@]3(F)[C@@H](O)C[C@]2(C)[C@@]1(O)C(=O)CO [DEX, Dexamethasone]",body weight,[1],very significant decrease in body weight from day 5 onwards
same,histological damage of colonic tissue,[1],failed to significantly reduce histological injury
"CCCCCCCCCCCCCCCC(=O)N[C@@H](CCC(=O)NCCCC[C@H](NC(=O)[C@H](C)NC(=O)[C@H](C)NC(=O)[C@H](CCC(N)=O)NC(=O)CNC(=O)[C@H](CCC(=O)O)NC(=O)[C@H](CC(C)C)NC(=O)[C@H](Cc1ccc(O)cc1)NC(=O)[C@H](CO)NC(=O)[C@H](CO)NC(=O)[C@@H](NC(=O)[C@H](CC(=O)O)NC(=O)[C@H](CO)NC(=O)[C@@H](NC(=O)[C@H](Cc1ccccc1)NC(=O)[C@@H](NC(=O)CNC(=O)[C@H](CCC(=O)O)NC(=O)[C@H](C)NC(=O)[C@@H](N)Cc1cnc[nH]1)[C@@H](C)O)[C@@H](C)O)C(C)C)C(=O)N[C@@H](CCC(=O)O)C(=O)N[C@@H](Cc1ccccc1)C(=O)N[C@H](C(=O)N[C@@H](C)C(=O)N[C@@H](Cc1c[nH]c2ccccc12)C(=O)N[C@@H](CC(C)C)C(=O)N[C@H](C(=O)N[C@@H](CCCNC(=N)N)C(=O)NCC(=O)N[C@@H](CCCNC(=N)N)C(=O)NCC(=O)O)C(C)C)[C@@H](C)CC)C(=O)O [GLP-1 analog, liraglutide]",liver weight at termination vs chow fed mice,C57Bl/6J DIO male mice,not statistically significantly different
same,body weight lost,C57Bl/6J DIO male mice; [6],25-30%
same,body weight lost (average),C57Bl/6J DIO male mice; [6],15 gram
same,plasma cholesterol level vs HFD reference group,C57Bl/6J DIO male mice; p<0.01,statistically significantly lower
"C[C@]12C=CC(=O)C=C1CC[C@@H]1[C@@H]2[C@@H](O)C[C@@]2(C)[C@H]1CC[C@]2(O)C(=O)CO [Pred, Prednisolone]","histological injury, proximal part of the colon",[2],failed to significantly reduce histological injury in the proximal part of the colon
same,"histological injury, distal colon",[2]; p<0.01,did reduce the injury in the distal colon
same,DAI,[2]; p<0.05,significant inhibition of the DAI on day 9
"GIGDPVTCLKSGAICHPVFCPRRYKQIGTCGLPGTKCCKKP (disulfide 8-37, 15-30, 20-38) [hBD-2, human beta defensin 2]",systemic availability after oral dosing,[3],not systemically available
same,renal clearance,[4],10 mL/min
Glucagon-like peptide-1 [GLP-1],half-life in the circulation,[5],less than 2 minutes
human neutrophil peptide 1 [HNP-1],glycogenolysis and gluconeogenesis,isolated hepatocytes,able to inhibit glycogenolysis and gluconeogenesis in isolated hepatocytes
"human neutrophil peptide 2 (CYCRIPACIAGERRYGTCIYQGRLWAFCC; listed as Homo sapiens) [HNP-2, alpha defensin produced by leucocytes]",glycogenolysis and gluconeogenesis,isolated hepatocytes,able to inhibit glycogenolysis and gluconeogenesis in isolated hepatocytes
